Results: patent US20140356393A1, “COMPOSITION FOR TREATMENT OR PREVENTION OF HYPERLIPIDEMIA, CONTAINING WATER EXTRACTS OF LAETIPORUS SULPHUREUS” (POSTECH ACADEMY-INDUSTRY FOUNDATION, priority 2011, published 2014)

Experiments:
cholesterol absorption = experiment: Amount of cholesterol absorption from the digestive tract into blood; assay type: in vivo; settings: male Balb/c mouse, oral 3H-cholesterol oleate, plasma radioactivity 6 hours after administration, relative to control = 1; FIG. 3
Experimental: Cholesterol oleate (Amersham, 100 μCi/mL) radiolabeled with ^3H was mixed with 1% (w/v) sodium carboxylmethyl cellulose (CMC-Na), 1% (v/v) Tween 80, and a non-labeled cholesterol oleate, and then 0.1 mL of the mixture was forcibly administered into each mouse through an oral zonde so that 1 μCi could be delivered to each mouse. Here, the mouse in the control group (an 8-week old male Balb/c with body weight of 25 g) was treated with 400 μg of Orlistat (20 mg/kg), which has an inhibitory effect against cholesterol absorption, and the mouse in the experimental group (an 8-week old male Balb/c with body weight of 25 g) was treated with […] of Laetiporus sulphureus prepared in the Example after concentrating it into 0.1 mL. Six hours after the administration, blood samples were collected from the mice, and plasma was obtained by centrifuging the blood at 40° C. at the rate of 14000 rpm, and the radioactive dose was measured by a liquid scintillator (Beta counter, Beckman LS1801). The Control group was not treated with anything that may inhibit the absorption of cholesterol. The amount of cholesterol absorption was determined as a relative value by dividing the radioactive dose of each group into the radioactive dose of the control group, in which the radioactive dose of the control group was set at ‘1’.

lipid absorption = experiment: Amount of triglyceride (lipid) absorption from the digestive tract into blood; assay type: in vivo; settings: male Balb/c mouse, oral 14C-triolein, plasma radioactivity 6 hours after administration, relative to control = 1; FIG. 4
Experimental: Triolein (Amersham, 100 μCi/mL) radiolabeled with ^14C was mixed with 1% (w/v) sodium carboxylmethyl cellulose (CMC-Na) and 1% (v/v) Tween 80, and then 0.1 mL of the mixture was forcibly administered into each mouse through an oral zonde so that 1 μCi could be delivered to each mouse. Here, the mouse in the control group (an 8-week old male Balb/c with body weight of 25 g) was treated with 400 μg of Orlistat (20 mg/kg), which is used as an obesity treatment, and the mouse in the experimental group (an 8-week old male Balb/c with body weight of 25 g) was treated with 0.5 mL of the water extract (50 mg/mL) of Laetiporus sulphureus prepared in the Example after concentrating it into 0.1 mL. Six hours after the administration, blood samples were collected from the mice, and plasma was obtained by centrifuging the blood at 40° C. at the rate of 14000 rpm, and the radioactive dose was measured by a liquid scintillator (Beta counter, Beckman LS1801). The control group was not treated with anything. The amount of lipid absorption was determined as a relative value by dividing the radioactive dose of each group into the radioactive dose of the control group, in which the radioactive dose of the control group was set at ‘1’.

CCCCCCCCCCC[C@@H](C[C@@H]1OC(=O)[C@H]1CCCCCC)OC(=O)[C@H](CC(C)C)NC=O [Orlistat]
inhibitory effect upon cholesterol absorption (cholesterol absorption): significant inhibitory effect | inhibitory effect upon lipid absorption (lipid absorption): significant inhibitory effect
